Experimental data as given in ChEMBL document CHEMBL5725254, “Substituted annulated triazines and use thereof” (2016).

Biological target: cGMP-specific 3',5'-cyclic phosphodiesterase (Homo sapiens, UniProt O76074)
Assay: Inhibition Assay: To determine their in vitro action on human PDE 5, the test substances are dissolved in 100% DMSO and serially diluted. Typically, dilution series (1:3) from 200 uM to 0.091 uM are prepared (resulting final concentrations in the test: 4 uM to 0.0018 uM). In each case 2 ul of the diluted substance solutions are placed into the wells of microtitre plates (Isoplate-96/200W; Perkin Elmer). Subsequently, 50 ul of a dilution of the above-described PDE 5 preparation are added. The dilution of the PDE 5 preparation is chosen such that during the later incubation less than 70% of the substrate are converted (typical dilution: 1:100; dilution buffer: 50 mM Tris/hydrochloric acid pH 7.5, 8.3 mM magnesium chloride, 1.7 mM EDTA, 0.2% BSA). The substrate, [8-3H] cyclic guanosine-3',5'-monophosphate (1 uCi/ul; Perkin Elmer) is diluted 1:2000 with assay buffer (50 mM tris/hydrochloric acid pH 7.5, 8.3 mM magnesium chloride, 1.7 mM EDTA) to a concentration of 0.0005 uCi/ul. By addition of 50 ul (0.025 uCi) of the diluted substrate, the enzyme reaction is finally started. The test mixtures are incubated at room temperature for 60 min and the reaction is stopped by adding 25 ul of a suspension of 18 mg/ml yttrium scintillation proximity beads in water (phosphodiesterase beads for SPA assays, RPNQ 0150, Perkin Elmer). […]

SMILES: CC1(C)C(=O)Nc2nc(-c3nn(Cc4ccccc4F)c4ncc(F)cc34)nc(CNC(=O)C3CC3)c21
- IC50: 570 nM
